Laboratory results taken from patent US7601850B2, “Phenyl-thiophene type vitamin D receptor modulators” (Eli Lilly and Company, priority 2002, dated 2009).
Like-named read-outs stand apart in the source and are kept apart here.

Tests used:
[1] = system: IL-10 production in peripheral blood mononuclear cells (PBMCs); assay: Human IL-10 induction assay in PBMCs; type: cell-based; settings: TPA/PHA stimulated human PBMCs, IL-10 in supernatant by immunoassay
Description: 7. The IL-10 induction assay is described in the “Assay” section of the Description, infra.
The evaluation of the novel compounds of the invention for psoriasis is done using the Keratinocyte Proliferation Assay in combination with other assays that measure inhibition of IL-2 production and stimulation of IL-10 production in peripheral blood mononuclear cells (PBMCs).
6. The IL-1 Induction Assay
This is an in vitro efficacy assay for psoriasis, abscess and adhesion. Psoriasis involves both keratinocytes and immune cells. IL-10 is a unique cytokine because it is anti-inflammatory and immunosuppressive. This assay tells us whether a VDRM is able to function as an agonist in PBMCs (primary blood mononuclear cells) or not. A lower EC50 value is desirable in this assay since a compound with a lower EC50 value will be a better agonist in PBMCs. An acceptable test result is an EC50 value of less than 200 nM.
(6) Materials and Method for Human IL-10 Induction Assay:
Isolation of peripheral blood mononuclear cells (PBMCs):
• A. Collect 50 ml of human blood and dilute with media, RPMI-1640. • B. Prepare sterile tubes with ficol. • C. Add diluted blood to tubes. • D. Centrifuge. • E. Discard the top layer and collect the cells from middle layer. • F. Divide all cells into four tubes and add media. • G. Centrifuge. • H. Aspirate off media and resuspend. • I. Collect all cells • J. Centrifuge. at 1200 rpm for 10 minutes. • K. Resuspend in RPMI-1640 with 2% FBS and count cells • Stimulation of PBMC: • L. Prepare TPA in DMSO. • M. Dissolve PHA in water. • N. Plate TPA/PHA treated PBMCs in well plates. • O. Incubate. • Treatment: • P. Prepare all compound dilutions in plain RPMI-1640 media. • Q. Add diluted compound. • R. Incubate. • Sample Collection and assay: • S. Remove all the cells by centrifugation and assay the supernatant for IL-10 by immunoassay. • 1) T. Perform IL-10 assay using anti-human IL-10 antibody coated beads, as described by the manufacturer (Linco Research Inc., St. Charles, Mo.).

[2] = Mouse hypercalcemia assay (six day, serum ionized calcium); type: in vivo
Procedure: 5. The Mouse Hypercalcemia test is described in the “Assay” section of the Description, infra.
4. The Mouse Hypercalcemia Assay
The Mouse Hypercalcemia Assay is a six day hypercalcemia test for toxicity and selectivity. Acceptable test results are levels greater than 300 μg/kg/day. Preferred assay results are levels greater than 1000 μg/kg/day.
(4) Materials and Method for The Mouse Hypercalcemia Assay:
Weanling, virus-antibody-free, five to six weeks old female DBF mice (Harlan, Indianapolis, Ind.) are used for all the studies. Animals are allowed to acclimate to local vivarium conditions for 2 days. […] The animals then are divided into groups with 4-5 mice per group. Different doses of test compounds prepared in 10% Ethanol and 90% sesame oil are administered to mice orally via gavage for 6 days. 1α-25(OH)2D3 0.5 μg/kg/d was also given to one group of mice as the positive control. Serum ionized calcium is evaluated at 6 hours after the last dosing under isoflurane anesthesia by Ciba-Corning Ca++/PH Analyzer, (Model 634, Chiron Diagnostics Corp., East Walpole, Mass.). Raw data of group differences is assessed by analysis of variance (ANOVA) using Fisher's protected least significant difference (PLSD) where the significance level was P<0.05.

rat osteocalcin promoter = assay: OCN (osteocalcin) promoter assay in RG-15 (ROS 17/2.8) cells; type: cell-based
In short: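 Rat osteoblast-like RG-15 (ROS 17/2.8) cells stably carry the rat osteocalcin promoter fused to luciferase. They were treated with compounds for 48 h in medium with 2% FBS and 0.01% DMSO. EC50 was derived from luciferase activity in cell lysates.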

KERtr cells = assay: Keratinocyte proliferation assay (BrdU incorporation); type: cell-based; settings: KERtr human skin keratinocytes, 72 hr treatment, read-out: Kera. Prolif. IC50
Procedure: 6. The keratinocyte proliferation assay is described in the “Assay” section of the Description, infra.
5. The Keratinocyte Proliferation Assay
This Assay is indicative for the treatment of psoriasis.
(5) The Keratinocyte Proliferation Assay:
KERtr cells (Human skin keratinocyte transformed with a retrovirus vector, obtained from ATCC) were plated in 96-well flat-bottomed plates (3000 cells/well) in 100 µl keratinocyte serum free medium supplemented with bovine pituitary extract in the absence of EGF (Life Technologies, Rockville, Md.) and incubated at 37° C. for two days. The cells were treated with various concentrations of VDR ligands (ten-fold serial dilution from 10,000 nM to 0.1 nM in triplicate), dissolved in 100 µl keratinocyte serum free medium supplemented with bovine pituitary extract in the absence of EGF and incubated at 37° C. for 72 hr. […] Potency values (IC50) values were determined as the concentration (nM) of compound that elicited a half-maximal response.

[3] = Homo sapiens, Keratinocyte, 72 h

Row | SMILES | IC50 ([1]; Homo sapiens, PBMC) [nM] | Mouse Hypercal [2] [µg/kg/day] | EC50 (rat osteocalcin promoter) [nM] | IC50 (KERtr cells; [3]) [nM] | IC50 (KERtr cells) [nM] | EC50 (rat osteocalcin promoter; Rattus norvegicus) [nM] | Mouse Hypercal μg/Kg/d [2] | IC50 [1] [nM]
1 | CCC(CC)(c1ccc(OCC(O)C(C)(C)C)c(C)c1)c1cc(C)c(-c2n[nH]c(=O)o2)s1 (stereo not drawn) [Ex. 170] | 100 | – | – | – | – | – | – | –
2 | CCc1cc(C(CC)(CC)c2ccc(C(=O)O)s2)ccc1OCC(O)C(C)(C)C (single isomer, unassigned) [Ex. 100, 3′-[4-(2-hydroxy-3,3-dimethylbutoxy)-3-ethylphenyl]-3′-[5-carboxy-thiophen-2-yl]pentane] | – | 3000 | 5.63 | 215 | – | – | – | –
3 | CCC(CC)(c1ccc(CCC(=O)O)c(C)c1)c1cc(C)c(CCC(O)C(C)(C)C)s1 (single isomer, unassigned) [Ex. 30B] | 120 | – | – | – | – | – | – | –
4 | CCC(CC)(c1ccc(OCC(O)C(C)(C)C)c(C)c1)c1cc(C)c(C(=O)NC(C)(C)C(=O)O)s1 (single isomer, unassigned) [Ex. 77, 2-[(5-{1-Ethyl-1-[4-(2-hydroxy-3,3-dimethyl-butoxy)-3-methyl-phenyl]-propyl}-3-methyl-thiophene-2-carbonyl)-amino]-2-methyl-propionic acid] | – | 300 | 2 | – | 194 | – | – | –
5 | CCC(CC)(c1ccc(OCC(=O)C(C)(C)C)c(C)c1)c1ccc(OCC(=O)C(C)(C)C)c(C)c1 [DD, reference compound] | – | 1000 | – | 1060 | – | 31.1 | – | –
6 | CCC(CC)(c1ccc(OCC(=O)C(C)(C)C)c(C)c1)c1cc(C)c(CS(C)(=O)=O)s1 [Ex. 9] | 98 | – | – | 129 | – | 46.6 | – | –
7 | CCc1cc(C(CC)(CC)c2ccc(C(=O)N[C@@H](C)C(=O)O)s2)ccc1OCC(C)(O)C(C)(C)C (single isomer, unassigned) [Ex. 110, d-3′-[4-(2-hydroxy-2,3,3-trimethylbutoxy)-3-ethylphenyl]-3′-[5-(carboxy-1-ethylamino)carbonyl-thiophen-2-yl]pentane] | 288 | <300 | – | 9.5 | – | 0.225 | – | –
8 | CCC(CC)(c1ccc(OCC(O)C(C)(C)C)c(C)c1)c1cc(C)c(S(=O)(=O)NCC(=O)O)s1 (stereo not drawn) [Ex. 138] | 110 | – | – | 102 | – | – | – | –
9 | CCC(CC)(c1ccc(OCC(C)(O)C(C)(C)C)c(C)c1)c1ccc(C(=O)NCC(=O)O)s1 (single isomer, unassigned) [Ex. 106, 3′-[4-(2-hydroxy-2,3,3-trimethylbutoxy)-3-methylphenyl]-3′-[5-(carboxymethylamino)carbonyl-thiophen-2-yl]pentane] | – | – | – | 13 | – | 8.05 | >=1000 μg/Kg/d | –
10 | C=C1/C(=C\C=C2/CCC[C@]3(C)[C@@H]([C@H](C)CCCC(C)(C)O)CC[C@@H]23)C[C@@H](O)C[C@@H]1O [AA, 1α,25-dihydroxyvitamin D3, reference compound] | – | 0.06 | 5 | – | – | – | – | 1.2
11 | CCc1cc(C(CC)(CC)c2ccc(C(=O)O)s2)ccc1OCC(C)(O)C(C)(C)C (single isomer, unassigned) [Ex. 108, 3′-[4-(2-hydroxy-2,3,3-trimethylbutoxy)-3-ethylphenyl]-3′-[5-carboxy-thiophen-2-yl]pentane] | 597 | 300 | – | 66 | – | 5.25 | – | –
12 | CCC(CC)(c1ccc(OS(C)(=O)=O)c(C)c1)c1cc(C)c(CCC(O)C(C)(C)C)s1 (single isomer, unassigned) [Ex. 19A] | 60 | – | – | 18 | – | – | – | –
13 | CCC(CC)(c1ccc(OCC(=O)O)c(C)c1)c1cc(C)c(CCC(O)C(C)(C)C)s1 (single isomer, unassigned) [Ex. 33B, 3′-[5-(3-hydroxy-4,4-dimethylpentyl)-4-methylthiophen-2-yl]-3′-[4-(carboxylmethoxy)-3-methylphenyl]pentane] | – | 1000 | 7.55 | 22.5 | – | – | – | –
14 | CCC(CC)(c1ccc(OCC(O)C(C)(C)C)c(C)c1)c1cc(C)c(C(=O)N[C@@H](C)C(=O)O)s1 (stereo partly drawn) [Ex. 65, L-2-[(5-{1-Ethyl-1-[4-(2-hydroxy-3,3-dimethyl-butoxy)-3-methyl-phenyl]-propyl}-3-methyl-thiophene-2-carbonyl)-amino]-propionic acid] | 41 | 300 | 3.4 | – | 56 | – | – | –
15 | CCC(CC)(c1ccc(OCC(=O)Nc2nnn[nH]2)c(C)c1)c1cc(C)c(CCC(O)C(C)(C)C)s1 (single isomer, unassigned) [Ex. 35, 3′-[5-(3-hydroxy-4,4-dimethylpentyl)-4-methylthiophen-2-yl]-3′-[4-(tetrazol-5-yl-aminocarbonylmethoxy)-3-methylphenyl]pentane] | – | 3000 | 21.1 | 474 | – | – | – | –
16 | CCC(CC)(c1ccc(OCC(O)C(C)(C)C)c(C)c1)c1cc(C)c(C(=O)NC(C)(C)C(=O)O)s1 (single isomer, unassigned) [Ex. 71, 2-[(5-{1-Ethyl-1-[4-(2-hydroxy-3,3-dimethyl-butoxy)-3-methyl-phenyl]-propyl}-3-methyl-thiophene-2-carbonyl)-amino]-2-methyl-propionic acid] | – | <300 | – | – | 29 | 3.5 | – | –
